Laboratory results: patent publication US20260315483A1, “HETEROCYCLIC COMPOUNDS AS TRIGGERING RECEPTOR EXPRESSED ON MYELOID CELLS 2 AGONISTS AND METHODS OF USE” (VIGIL NEUROSCIENCE, INC., priority 2023, published 2026)

Target: T1, human TREM2 (Homo sapiens, UniProt Q9NZC2)
T1 construct: expressed in transfected cells; host or cells: HEK293T-hTREM2 cells (HEK cell line expressing human TREM2 and DAP12)
Test: In vitro measurement of TREM2 activity using cellular phosphorylation of spleen tyrosine kinase (Syk), AlphaLisa, HEK293T-hTREM2 cells
Assay type: cell-based
Settings: HEK293T cells expressing human TREM2 and DAP12, 45 min at room temperature
Description: In Vitro Measurement of Triggering Receptor Expressed on Myeloid Cells 2 Activity Using Cellular Phosphorylation of Spleen Tyrosine Kinase (“Syk”) Assays
Measurement of TREM2 agonist potency was done using a HEK cell line expressing human TREM2 and DAP12 (HEK293T-hTREM2 cells). Binding of small molecules to, and activation of, TREM2 increases the phosphorylation of Syk. The resultant levels of Syk phosphorylation are measured using a commercial AlphaLisa reagent kit. To perform the assay, HEK-hTREM2 cells were plated at 14,000 cells per well in a 384 well plate, in 25 μL of complete growth media and incubated at 37° C., 5% CO2 for 20-24 hours.
Prior to the assay, test compounds were diluted in the 384 well plates in assay buffer and allowed to equilibrate for 30 minutes. Growth media was removed from cell plates by inversion on blotting paper, and 25 μL of test articles in assay buffer was added to cells. Cells were incubated for 45 minutes at room temperature. After 45 minutes, assay buffer was removed and 10 μL of lysis buffer was added. Plates were shaken for 20 minutes at 350 RPM at room temperature. After complete lysis, AlphaLisa reagents were added to the lysate, and fluourescence intensity was measured using a Perkin Elmer Envision plate reader. Intensities were used to generate a standard curve, and % activation was calculated. Curve fitting was performed using Prism v9 software, log(agonist) vs response—variable slope (four parameters), and EC50s were calculated from the curve fit.
The results presented in Tables D and D-2 have been generated with the in vitro assay described above. This assay may be used to test any of the compounds described herein to assess and characterize a compound's ability to act as an agonist of TREM2.

T1 sequence (Q9NZC2 19-230): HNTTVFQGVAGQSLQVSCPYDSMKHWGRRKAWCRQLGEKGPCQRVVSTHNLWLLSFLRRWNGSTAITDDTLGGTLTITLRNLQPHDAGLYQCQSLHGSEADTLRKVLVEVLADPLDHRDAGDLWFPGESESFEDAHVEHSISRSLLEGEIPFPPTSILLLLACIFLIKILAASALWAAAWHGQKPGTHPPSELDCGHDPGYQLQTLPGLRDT
T1 sequence (O43914 22-113 partner): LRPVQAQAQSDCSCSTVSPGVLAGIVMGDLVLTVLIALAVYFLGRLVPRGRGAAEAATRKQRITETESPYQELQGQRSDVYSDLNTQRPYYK

EC50 (Table D) | EC50 (Table D-2) | Structure (SMILES)
≤ 50 nM |  | Cc1cc([C@H]2C[C@@H](c3nc(-c4ccc(F)cc4F)c4sc(N(C)C)nc4n3)CCO2)ccn1 [compound 116, 7-(2,4-difluorophenyl)-N,N-dimethyl-5-[(2R,4S)-2-(2-methyl-4-pyridyl)tetrahydropyran-4-yl]thiazolo[4,5-d]pyrimidin-2-amine]
50 to 500 nM |  | C[C@@H]1CN(c2nc(-c3ccc(C(F)(F)F)cc3)c3sc(N(C)C)nc3n2)C[C@H](c2cnn(C3CC3)c2)O1 [compound 117, 5-[(2S,6R)-2-(1-cyclopropyl-pyrazol-4-yl)-6-methyl-morpholin-4-yl]-N,N-dimeth-yl-7-[4-(trifluoromethyl)-phenyl]thiazolo[4,5-d]pyr-imidin-2-amine]
500 to 3000 nM |  | CC(C)Oc1nc2nc(N3C[C@@H](C)O[C@@H](c4cnn(C5CC5)c4)C3)nc(-c3ccc(C(F)(F)F)cc3F)c2s1 [compound 118, (2S,6R)-2-(1-cyclopropylpyrazol-4-yl)-4-[7-[2-fluoro-4-(trifluoromethyl)-phenyl]-2-isopropoxy-thiazolo[4,5-d]pyrimidin-5-yl]-6-methyl-morpholine]
≤ 50 nM |  | Cc1cc([C@H]2CN(c3nc(-c4ccc(F)cc4F)c4sc(N(C)C)nc4n3)C[C@@H](C)O2)ccn1 [compound 123, 7-(2,4-difluorophenyl)-N,N-dimethyl-5-[(2R,6S)-2-methyl-6-(2-methyl-4-pyridyl)morpholin-4-yl]thiazolo[4,5-d]pyrimidin-2-amine]
50 to 500 nM |  | C[C@@H]1CCCN1c1nc2nc([C@H]3CCO[C@@H](c4cnn(C5CC5)c4)C3)nc(-c3ccc(F)cc3F)c2n1C [compound 124, 6-(2,4-difluorophenyl)-7-methyl-2-[(2R,4S)-2-(1-cyclopropylpyrazol-4-yl)tetrahydropyran-4-yl]-8-[(2R)-2-methylpyrrolidin-1-yl]purine]
50 to 500 nM |  | C[C@H]1CCCN1c1nc2nc([C@H]3CCO[C@@H](c4cnn(C5CC5)c4)C3)nc(-c3ccc(F)cc3F)c2n1C [compound 125]
50 to 500 nM |  | C[C@@H]1CN(c2nc(-c3ccc(C(F)(F)F)cc3F)c3[nH]c(N(C)C)nc3n2)C[C@H](c2cnn(C3CC3)c2)O1 [compound 126, 2-((2S,6R)-2-(1-cyclopropyl-1H-pyrazol-4-yl)-6-methylmorpholino)-6-(2-fluoro-4-(trifluoromethyl)phenyl)-N,N-dimethyl-9H-purin-8-amine]
50 to 500 nM |  | Cn1c(C(F)F)nc2nc([C@H]3CCO[C@@H](c4cnn(C5CC5)c4)C3)nc(-c3ccc(C(F)(F)F)cc3F)c21 [compound 127, 2-[(2R,4S)-2-(1-cyclopropylpyrazol-4-yl)tetrahydropyran-4-yl]-8-(difluoromethyl)-6-[2-fluoro-4-(trifluoromethyl)phenyl]-7-methyl-purine]
500 to 3000 nM |  | CN(C)c1nc2c(C34CC(C(F)(F)F)(C3)C4)nc([C@H]3CCO[C@@H](c4cnn(C5CC5)c4)C3)nc2n1C [compound 128, 2-[(2R,4S)-2-(1-cyclopropylpyrazol-4-yl)tetrahydropyran-4-yl]-N,N-9-trimethyl-6-[3-(trifluoromethyl)-1-bicyclo[1.1.1]pentanyl]purin-8-amine]
500 to 3000 nM |  | CN(C)c1nc2nc([C@H]3CCO[C@@H](c4cnn(C5CC5)c4)C3)nc(C34CC(C(F)(F)F)(C3)C4)c2[nH]1 [compound 129, 2-[(2R,4S)-2-(1-cyclopropylpyrazol-4-yl)tetrahydropyran-4-yl]-N,N-dimethyl-6-[3-(trifluoromethyl)-1-bicyclo[1.1.1]pentanyl]-7H-purin-8-amine]
≤ 50 nM |  | C[C@@H]1CN(c2nc(C34CC(C(F)(F)F)(C3)C4)c3c(n2)nc(N(C)C)n3C)C[C@H](c2cnn(C3CC3)c2)O1 [compound 130, 2-[(2S,6R)-2-(1-cyclopropylpyrazol-4-yl)-6-methyl-morpholin-4-yl]-N,N,7-trimethyl-6-[3-(trifluoromethyl)-1-bicyclo[1.1.1]pentanyl]purin-8-amine]
500 to 3000 nM |  | C[C@@H]1CN(c2cc(-c3ccc(F)cc3F)n3ncnc3n2)C[C@H](c2cnn(C3CC3)c2)O1 [compound 131, (2S,6R)-2-(1-cyclopropyl-1H-pyrazol-4-yl)-4-(7-(2,4-difluorophenyl)-[1,2,4]triazolo[1,5-a]pyrimidin-5-yl)-6-methylmorpholine]
500 to 3000 nM |  | Cc1c(F)ccc(-c2cc(N3C[C@@H](C)O[C@@H](c4cnn(C5CC5)c4)C3)nc3ncnn23)c1F [compound 132, (2S,6R)-2-(1-cyclopropyl-1H-pyrazol-4-yl)-4-(7-(2,4-difluoro-3-methylphenyl)-[1,2,4]triazolo[1,5-a]pyrimidin-5-yl)-6-methylmorpholine]
50 to 500 nM |  | Cc1cn2c(-c3ccc(C(F)(F)F)cc3F)nc([C@H]3CCO[C@@H](c4cnn(C5CC5)c4)C3)cc2n1 [compound 133, 7-((2R,4S)-2-(1-cyclopropyl-1H-pyrazol-4-yl)tetrahydro-2H-pyran-4-yl)-5-(2-fluoro-4-(trifluoromethyl)phenyl)-2-methylimidazo[1,2-c]pyrimidine]
50 to 500 nM |  | Cc1cn2c(-c3ccc(Cl)cc3F)nc(N3C[C@@H](C)O[C@@H](c4cnn(C5CC5)c4)C3)cc2n1 [compound 134, (2S,6R)-4-(5-(4-chloro-2-fluorophenyl)-2-methylimidazo[1,2-c]pyrimidin-7-yl)-2-(1-cyclopropyl-1H-pyrazol-4-yl)-6-methylmorpholine]
 | 3000 to 100000 nM | CN1Cc2c(cc(N3CCO[C@@H](c4cnn(C)c4)C3)nc2-c2ccc(Cl)cc2F)C1=O [compound 200]
 | 500 to 3000 nM | Cc1cc([C@H]2CN(c3cc4c(c(-c5ccc(Cl)cc5F)n3)CN(C)C4=O)CCO2)ccn1 [compound 201]
 | 500 to 3000 nM | CN1Cc2c(cc(N3CCO[C@@H](c4cnn(C)c4)C3)nc2-c2ccc(F)cc2F)C1=O [compound 202]
 | 3000 to 100000 nM | Cc1cc([C@H]2CN(c3cc4c(c(-c5ccc(F)cc5F)n3)CN(C)C4=O)CCO2)ccn1 [compound 203]
 | 50 to 500 nM | CCN1Cc2c(cc(N3CCO[C@@H](c4cnn(C)c4)C3)nc2-c2ccc(Cl)cc2F)C1=O [compound 204]
 | 500 to 3000 nM | CC(C)N1Cc2c(cc(N3CCO[C@@H](c4cnn(C)c4)C3)nc2-c2ccc(Cl)cc2F)C1=O [compound 205]

EC50 (Table D) | EC50 (Table D-2) | Structure (SMILES)
 | 500 to 3000 nM | C[C@H]1CN(c2cc3c(c(-c4ccc(Cl)cc4F)n2)CN(C)C3=O)CCO1 [compound 206]
 | 3000 to 100000 nM | CN1C(=O)c2cc(-c3ccc(Cl)cc3F)nc(N3CCO[C@@H](c4cnn(C)c4)C3)c2C1(C)C [compound 207]
 | 3000 to 100000 nM | CN1C(=O)c2cc(N3CCO[C@@H](c4cnn(C)c4)C3)nc(-c3ccc(Cl)cc3F)c2C1(C)C [compound 208]
 | 3000 to 100000 nM | C[C@@H]1c2c(cc(N3CCO[C@@H](c4cnn(C)c4)C3)nc2-c2ccc(Cl)cc2F)C(=O)N1C [compound 209]
 | 3000 to 100000 nM | CN1Cc2c(cc(-c3ccc(Cl)cc3F)nc2-c2ccc(Cl)cc2F)C1=O [compound 210]
 | 3000 to 100000 nM | C[C@H]1c2c(cc(-c3ccc(Cl)cc3F)nc2-c2ccc(Cl)cc2F)C(=O)N1C [compound 211]
 | 50 to 500 nM | CN1Cc2c(cc(N3CCO[C@@H](c4cnn(C5CC5)c4)C3)nc2-c2ccc(Cl)cc2F)C1=O [compound 212]
 | 3000 to 100000 nM | Cc1cc([C@H]2CN(c3cc4c(c(-c5ccc(Cl)cc5F)n3)C(C)N(C)C4=O)CCO2)ccn1 (some centres unmarked) [compound 213]
 | 3000 to 100000 nM | Cc1cc([C@H]2CN(c3cc4c(c(-c5ccc(Cl)cc5F)n3)[C@@H](C)N(C)C4=O)CCO2)ccn1 [compound 214]
 | 3000 to 100000 nM | Cc1cc([C@H]2CN(c3cc4c(c(-c5ccc(Cl)cc5F)n3)[C@H](C)N(C)C4=O)CCO2)ccn1 [compound 215]
 | 3000 to 100000 nM | CN1Cc2c(cc(N3CCO[C@@H](c4cnn(C)c4)C3)nc2C2CC(C(F)(F)F)C2)C1=O (some centres unmarked) [compound 216]
 | 500 to 3000 nM | Cc1cc([C@H]2CN(c3cc4c(c(-c5ccc(Cl)cc5F)n3)CN(C)C4=O)CCO2)cnn1 [compound 217]
 | 500 to 3000 nM | CN1C(=O)c2cc([C@@H]3CCO[C@H](c4cnn(C5CC5)c4)C3)nc(-c3ccc(F)cc3F)c2C1=O [compound 218]
 | 500 to 3000 nM | CN1C(=O)c2cc([C@H]3CCO[C@@H](c4cnn(C5CC5)c4)C3)nc(-c3ccc(F)cc3F)c2C1=O [compound 219]
 | 50 to 500 nM | C[C@@H]1CN(c2cc3c(c(C4CC(C(F)(F)F)C4)n2)CN(C)C3=O)C[C@H](c2cnn(C3CC3)c2)O1 (some centres unmarked) [compound 220]
 | ≤ 50 nM | C[C@@H]1CN(c2cc3c(c(-c4ccc(C(F)(F)F)cc4F)n2)CN(C)C3=O)C[C@H](c2cnn(C3CC3)c2)O1 [compound 221]
 | 50 to 500 nM | CN1Cc2c(cc(C3CCO[C@@H](c4cnn(C5CC5)c4)C3)nc2-c2ccc(C(F)(F)F)cc2F)C1=O (some centres unmarked) [compound 222]
 | 50 to 500 nM | CN1Cc2c(cc([C@@H]3CCO[C@@H](c4cnn(C5CC5)c4)C3)nc2-c2ccc(C(F)(F)F)cc2F)C1=O [compound 223]
 | 50 to 500 nM | CN1Cc2c(cc([C@H]3CCO[C@@H](c4cnn(C5CC5)c4)C3)nc2-c2ccc(C(F)(F)F)cc2F)C1=O [compound 224]
 | 50 to 500 nM | CN1Cc2c(cc(C3CCO[C@@H](c4cnn(C5CC5)c4)C3)nc2C2CC(C(F)(F)F)C2)C1=O (some centres unmarked) [compound 225]
